The subject of test [1] is U87-MG. The test is described as follows: Cellular proliferation assay (Alamar blue), U87-MG. It counts as cell-based. The settings on record: Homo sapiens, U-87 MG; 10% FCS; 72 hours with compound; Alamar blue 6 h; read-out: U87-MG (cellular proliferation assay, Table 4) (converted). The method in brief: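 24 h seeding without compound, 10% FCS, 37° C/5% CO2; 72 h compound; Alamar blue (resazurin 9 μg/ml, ferro-/ferricyanide 90 μM) 4 h HCT-116, 6 h U87-MG, 24 h A2780/MDA-MB-231; fluorescence 544/590 nm vs control cells.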
Background: Alamar Blue is a resazurin reagent that responds to reducing activity.

Test [2] has as its target CDK1/CyclinB (h) (Homo sapiens, UniProt P06493). Kind of test: CDK1/CyclinB human kinase inhibition, Invitrogen's FRET assay (Z'lyte). It counts as biochemical. Conditions: read-out: CDK1 pIC50 (converted). The method in brief: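 Z'lyte FRET assay: human CDK1/CyclinB (0.2 μg/ml) with 2 μM Ser/Thr peptide 12 and 10 μM ATP in 50 mM Hepes pH 7.5, MgCl2, EGTA, Brij-35, 60 min at room temperature. Protease development 60 min, then emission ratio 460/538 nm read with excitation at 390 nm.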

Test [3] concerns H1299. The test is described as follows: Cellular proliferation assay (Alamar blue), H1299. In kind it is cell-based. The settings on record: Homo sapiens, NCI-H1299; 10% FCS; 72 hours with compound; Alamar blue 4 h. The method in brief:
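This proliferation assay on NCI-H1299 cells used an initial 24-hour compound-free incubation after seeding, followed by 72 hours of compound treatment with 10% FCS serum at 37° C. and 5% (v/v) CO2. Viable cells were quantified by a 4 h Alamar blue incubation and fluorescent plate reading at 544 nm/590 nm, and effects were expressed relative to control cells.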

For test [4], the target named is PLK1 T210D (h) (Homo sapiens, UniProt P53350, T210D). Kind of test: PLK1 human kinase inhibition, SPA. The settings on record: read-out: PLK1 pIC50 (converted). In kind it is biochemical. The method in brief:
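Radiometric SPA with PLK1 T210D (0.125 ng/ml) in 50 mM Hepes pH 8.0, 2 mM MnCl2, 1 mM DTT, 2 μM biotinylated peptide, 0.1 μM ATP plus 2 nM [γ-33P]ATP. 40 min at room temperature, EDTA stop. Phosphorylated substrate captured on streptavidin PVT beads, scintillation imaged.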

This note sets out measurements from patent US8609836B2, “4-aryl-2-anilino-pyrimidines” (Janssen Pharmaceutica NV, priority 2008, dated 2013).

PLK1 T210D (h), sequence (P53350 whole entry T210D): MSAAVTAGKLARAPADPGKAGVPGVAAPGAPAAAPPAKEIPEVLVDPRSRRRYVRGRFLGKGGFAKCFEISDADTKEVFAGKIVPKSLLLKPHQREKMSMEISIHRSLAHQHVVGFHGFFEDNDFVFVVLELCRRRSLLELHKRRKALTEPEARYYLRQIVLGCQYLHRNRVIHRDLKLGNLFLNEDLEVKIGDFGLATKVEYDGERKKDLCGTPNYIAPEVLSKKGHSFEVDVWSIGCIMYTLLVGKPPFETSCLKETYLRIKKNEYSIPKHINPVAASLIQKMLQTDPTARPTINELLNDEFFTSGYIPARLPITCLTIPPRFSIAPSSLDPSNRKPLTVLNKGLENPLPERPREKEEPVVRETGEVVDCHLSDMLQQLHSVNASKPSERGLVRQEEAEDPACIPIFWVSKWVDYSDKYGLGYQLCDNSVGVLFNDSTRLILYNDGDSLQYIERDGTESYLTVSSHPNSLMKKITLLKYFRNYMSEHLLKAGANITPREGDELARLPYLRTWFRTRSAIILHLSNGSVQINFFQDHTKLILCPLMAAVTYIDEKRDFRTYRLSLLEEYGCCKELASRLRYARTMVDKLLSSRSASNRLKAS
CDK1/CyclinB (h), sequence (P06493 whole entry): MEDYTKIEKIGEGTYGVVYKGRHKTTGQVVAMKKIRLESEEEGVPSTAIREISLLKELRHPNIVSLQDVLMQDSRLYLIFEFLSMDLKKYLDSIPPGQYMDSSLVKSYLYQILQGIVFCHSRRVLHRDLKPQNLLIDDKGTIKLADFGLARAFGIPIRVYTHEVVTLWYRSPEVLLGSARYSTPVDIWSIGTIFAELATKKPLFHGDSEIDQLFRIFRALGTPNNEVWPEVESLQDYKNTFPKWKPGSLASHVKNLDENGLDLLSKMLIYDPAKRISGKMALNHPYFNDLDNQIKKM
CDK1/CyclinB (h), sequence (P14635 whole entry partner): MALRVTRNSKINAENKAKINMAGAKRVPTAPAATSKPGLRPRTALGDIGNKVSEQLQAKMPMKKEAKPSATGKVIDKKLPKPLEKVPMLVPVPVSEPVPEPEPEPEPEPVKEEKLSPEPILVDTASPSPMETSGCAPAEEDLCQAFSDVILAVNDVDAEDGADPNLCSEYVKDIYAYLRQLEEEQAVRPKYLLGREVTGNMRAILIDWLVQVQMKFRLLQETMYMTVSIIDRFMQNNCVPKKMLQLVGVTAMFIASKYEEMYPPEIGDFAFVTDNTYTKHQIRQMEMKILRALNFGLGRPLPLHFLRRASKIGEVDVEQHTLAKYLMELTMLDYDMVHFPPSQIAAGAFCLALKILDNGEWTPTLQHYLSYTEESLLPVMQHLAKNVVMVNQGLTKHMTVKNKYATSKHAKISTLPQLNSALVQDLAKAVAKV

`CN1CCCNC(=O)[C@@H]2CCCN2Cc2cccc(c2)Nc2nccc(n2)-c2ccc(cc2)C1` [Compound 173]: the IC50 in test [1], in test [2], in test [3] and in test [4] was above 10 µM each time.
Turning to `CN1CCCNC(=O)[C@H](CO)NCc2cccc(c2)Nc2nccc(n2)-c2ccc(cc2)C1` [Compound 113], the IC50 in test [1], in test [2], in test [3] and in test [4] was above 10 µM in each case.
For the compound `COc1ccc2cc1CN(C)CCNC(=O)CN1CCN(CC1)Cc1cccc(c1)Nc1nccc-2n1` [Compound 147], the IC50 in test [1], in test [2], in test [3] and in test [4] was above 10 µM throughout.
As to `COc1ccc2cc1CN(C)CCNC(=O)CN1CCN(CC1)Cc1cc(cc(N3CCOCC3)c1)Nc1nccc-2n1` [Compound 145], the IC50 in test [1], in test [2], in test [3] and in test [4] was above 10 µM each time.
In the case of `O=C1NCCCNCc2ccc(cc2)-c2ccnc(n2)Nc2ccc(N3CCOCC3)c(c2)CN2C[C@H](O)C[C@@H]12` [Compound 169], the IC50 in test [1], in test [2], in test [3] and in test [4] was above 10 µM each time.
In the case of `COc1ccc2cc1CN(C)CCCNC(=O)C1CCN(CC1)Cc1cc(cc(NC(C)C)c1)Nc1nccc-2n1` [Compound 70], the IC50 is 9.12 µM in test [1], above 10 µM in test [2], above 10 µM in test [3] and above 10 µM in test [4].
Take `COc1ccc2cc1CN(C)CCNC(=O)C1CCN(CC1)Cc1cccc(c1)Nc1nccc-2n1` [Compound 83]: the IC50 in test [1], in test [2], in test [3] and in test [4] was above 10 µM each time.
For `COc1ccc2cc1CN(C)CCNC(=O)C1CCN(CC1)Cc1cc(cc(NC(C)C)c1)Nc1nccc-2n1` [Compound 75], the IC50 was 5.13 µM in test [1], above 10 µM in test [2], above 10 µM in test [3] and above 10 µM in test [4].
With `C[C@@H]1NCc2cc(ccc2N2CCOCC2)Nc2nccc(n2)-c2cccc(c2)OCCCNC1=O` [Compound 88], the IC50 is 3.55 µM in test [1], 4.79 µM in test [2], 8.13 µM in test [3] and above 10 µM in test [4].
Turning to `O=C1NCc2cccc(c2)-c2ccnc(n2)Nc2cc(CN3CCOCC3)cc(c2)CN2CCC[C@@H]12` [Compound 22], the IC50 in test [1] is 0.234 µM; in test [2], 0.251 µM; in test [3], 2.75 µM; in test [4], above 10 µM.
As for `O=C1NCCCOc2cccc(c2)-c2ccnc(n2)Nc2ccc(N3CCOCC3)c(c2)CN2CCC[C@@H]12` [Compound 96], the IC50 in test [1] was 4.17 µM; in test [2], above 10 µM; in test [3], above 10 µM; in test [4], above 10 µM.
Turning to `CN(C)CCNC(=O)c1ccc2cc1CN1CCC[C@H]1C(=O)NCc1cccc(c1)-c1ccnc(n1)N2` [Compound 42], the IC50 is 1.82 µM in test [1], around 1.35 µM in test [2], 3.39 µM in test [3] and above 10 µM in test [4].
For `CN1CCNC(=O)C2CCN(CC2)Cc2cccc(c2)Nc2nccc(n2)-c2ccc(cc2)C1` [Compound 82], the IC50 in test [1], in test [2], in test [3] and in test [4] was above 10 µM throughout.
On to `O=C(NC1CCOCC1)c1ccc2cc1CN1CCC[C@H]1C(=O)NCc1cccc(c1)-c1ccnc(n1)N2` [Compound 46], for which the IC50 in test [1], in test [2], in test [3] and in test [4] was above 10 µM each time.
As to `COc1ccc2cc1CN(C)CCCNC(=O)CN1CCN(CC1)Cc1cc(cc(N3CCOCC3)c1)Nc1nccc-2n1` [Compound 141], the IC50 in test [1] is 5.89 µM; in test [2], above 10 µM; in test [3], above 10 µM; in test [4], above 10 µM.
Consider `COc1ccc2cc1CN(C)CCCNC(=O)C1CCN(CC1)Cc1cccc(c1)Nc1nccc-2n1` [Compound 81], for which the IC50 in test [1], in test [2], in test [3] and in test [4] was above 10 µM throughout.
Take `COc1ccc2cc1CN(C)CCCNC(=O)CN1CCN(CC1)Cc1cc(Br)cc(c1)Nc1nccc-2n1` [Compound 144]: the IC50 in test [1] is 9.33 µM; in test [2], above 10 µM; in test [3], above 10 µM; in test [4], above 10 µM.
Turning to `O=C1NCCCOc2ccc(cc2)-c2ccnc(n2)Nc2ccc(N3CCOCC3)c(c2)CN2CCC1CC2` [Compound 92], the IC50 was 0.178 µM in test [1], 1.02 µM in test [2], 0.832 µM in test [3] and above 10 µM in test [4].
The corresponding values for `O=C1NCc2cccc(c2)-c2ccnc(n2)Nc2cc(CNC3CCCCC3)cc(c2)CN2CCC[C@@H]12` [Compound 36] are 0.282 µM, 0.457 µM, 3.39 µM and above 10 µM.
On to `O=C1CN2CCN(CC2)Cc2cc(ccc2N2CCOCC2)Nc2nccc(n2)-c2cccc(c2)OCCCN1` [Compound 103], for which the IC50 in test [1], in test [2], in test [3] and in test [4] was above 10 µM throughout.
`C[C@H]1NCc2cc(ccc2N2CCOCC2)Nc2nccc(n2)-c2ccc(cc2)OCCCNC1=O` [Compound 86]: the IC50 in test [1], in test [2], in test [3] and in test [4] was above 10 µM throughout.
Consider `O=C(NC1CCCCC1)c1ccc2cc1CN1CCC[C@H]1C(=O)NCc1cccc(c1)-c1ccnc(n1)N2` [Compound 41], for which the IC50 in test [1] was 2.29 µM; in test [2], above 10 µM; in test [3], above 10 µM; in test [4] it was above 10 µM.
On to `COc1ccc2cc1CN1CCC(CC1)C(=O)N(C)CCN(C)c1ccc(cn1)-c1ccnc(n1)N2` [Compound 4], for which the IC50 in test [1], in test [2], in test [3] and in test [4] was above 10 µM each time.
For `CN1CCNC(=O)C2CCN(CC2)Cc2cc(Br)cc(c2)Nc2nccc(n2)-c2ccc(cc2)C1` [Compound 60], the IC50 is 2.57 µM in test [1], above 10 µM in test [2], above 10 µM in test [3] and above 10 µM in test [4].
On to `O=C1NCCCOc2cccc(c2)-c2ccnc(n2)Nc2ccc(N3CCOCC3)c(c2)CN[C@H]1Cc1ccccc1` [Compound 91], for which the IC50 in test [1], in test [2], in test [3] and in test [4] was above 10 µM throughout.
For the compound `COc1ccc2cc1CNCCNC(=O)[C@@H]1C[C@@H](O)CN1Cc1cc(ccc1N1CCOCC1)Nc1nccc-2n1` [Compound 177], the IC50 in test [1], in test [2], in test [3] and in test [4] was above 10 µM each time.
Turning to `C[C@H]1NCc2cc(ccc2N2CCOCC2)Nc2nccc(n2)-c2cccc(c2)OCCCNC1=O` [Compound 87], the IC50 in test [1] was 6.17 µM; in test [2], 7.08 µM; in test [3] it was above 10 µM; in test [4], above 10 µM.
Turning to `CN1CCCNC(=O)[C@H](CO)NCc2cc(cc(N3CCOCC3)c2)Nc2nccc(n2)-c2ccc(cc2)C1` [Compound 10], the IC50 in test [1], in test [2], in test [3] and in test [4] was above 10 µM throughout.
As to `CN(C)CCNCc1cc2cc(c1)Nc1nccc(n1)-c1cccc(c1)CNC(=O)[C@@H]1CCCN1C2` [Compound 31], the IC50 was 2.24 µM in test [1], 0.933 µM in test [2], 1.78 µM in test [3] and above 10 µM in test [4].
Regarding `COc1ccc2cc1CN(C)CCCNC(=O)[C@@H]1CCCN1Cc1cccc(c1)Nc1nccc-2n1` [Compound 180], the IC50 in test [1], in test [2], in test [3] and in test [4] was above 10 µM in each case.
Consider `COCCNC(=O)c1ccc2cc1CN1CCC[C@H]1C(=O)NCc1cccc(c1)-c1ccnc(n1)N2` [Compound 40], for which the IC50 in test [1] was 2.29 µM; in test [2] it was 3.09 µM; in test [3], above 10 µM; in test [4] it was above 10 µM.
In the case of `COc1ccc2cc1CNCCNC(=O)CN1CCN(CC1)Cc1cc(ccc1N1CCOCC1)Nc1nccc-2n1` [Compound 126], the IC50 in test [1], in test [2], in test [3] and in test [4] was above 10 µM each time.
